# Data reported in patent US20050074879A1, “Antisense oligonucleotide modulation of STAT3 expression” (priority 2000, published 2005).
# Oligonucleotides are written 5' to 3', each unit as a sugar letter and its base; * is a phosphorothioate linkage, no mark a phosphodiester; rarer units and linkages stand in square brackets, end groups in braces. Plain capitals give the bases only. e = 2'-O-(2-methoxyethyl) (MOE); [5mC] = 5-methylcytosine; d = 2'-deoxy (DNA)
# Test system: Mouse STAT3 mRNA
# Assay: Inhibition of mouse STAT3 mRNA expression in BCL1 cells (electroporation; RNase protection/Northern blot)
# Assay type: cell-based
# Parameters: % mRNA INHIBITION: dose or concentration left out as unconfirmed
# Conditions: BCL1 cells electroporated with oligonucleotide, RNA collected 24 hours later
# Description: The B lymphoma cell line, BCL1 was obtained from ATCC (Rockville, Md.). BCL1 cells were cultured in RPMI 1640 medium.
# BCL1 cells (5×10^6 cells in PBS) were transfected with oligonucleotides by electroporation, at 200V, […]. using a BTX Electro Cell Manipulator 600 (Genetronics, San Diego, Calif.). For an initial screen, BCL1 were electroporated with […] oligonucleotide and RNA collected 24 hours later. Controls without oligonucleotide were subjected to the same electroporation conditions.
# Total cellular RNA was isolated using the RNEASY7 kit (Qiagen, Santa Clarita, Calif.). RNAse protection experiments were conducted using RIBOQUANT™ kits and template sets according to the manufacturer's instructions (Pharmingen, San Diego, Calif.). Northern blotting was performed as described in Chiang, M-Y. et al. (J. Biol. Chem., 1991, 266, 18162-18171), using a rat cDNA probe prepared by Xho I/Sal I restriction digest of psvsport-1 plasmid (ATCC, Rockville, Md.). mRNA levels were quantitated using a PhosphorImager (Molecular Dynamics, Sunnyvale, Calif.).
row,Substance,% mRNA INHIBITION [%]
1,17136 (antisense eG*eT*eT*e[5mC]*e[5mC]*dA*dC*dT*dG*dA*dG*dC*dC*dA*dT*e[5mC]*e[5mC]*eT*eG*e[5mC]) [compound 17136],25
2,17139 (antisense e[5mC]*e[5mC]*eA*eA*eG*dA*dG*dA*dT*dT*dA*dT*dG*dA*dA*eA*e[5mC]*eA*e[5mC]*e[5mC]) [compound 17139],59
3,17157 (antisense eA*eA*e[5mC]*e[5mC]*eT*dC*dC*dT*dG*dG*dG*dC*dT*dT*dA*eG*eT*e[5mC]*e[5mC]*eT) [compound 17157],47
4,17143 (antisense eG*e[5mC]*e[5mC]*eA*eG*dA*dC*dC*dC*dA*dG*dA*dA*dG*dG*eA*eG*eA*eA*eG) [compound 17143],58
5,17145 (antisense eA*eA*e[5mC]*eT*eT*dG*dG*dT*dC*dT*dT*dC*dA*dG*dG*eT*eA*e[5mC]*eG*eG) [compound 17145],11
6,17141 (antisense eG*e[5mC]*eT*e[5mC]*eT*dT*dC*dA*dT*dC*dA*dG*dT*dC*dA*eG*eT*eG*eT*e[5mC]) [compound 17141],38
7,17155 (antisense eT*eG*eA*eA*eA*dA*dA*dG*dG*dA*dG*dG*dG*dC*dA*eG*eG*e[5mC]*eG*eG) [compound 17155],22
8,17144 (antisense e[5mC]*eG*e[5mC]*eT*e[5mC]*dC*dT*dT*dG*dC*dT*dG*dA*dT*dG*eA*eA*eA*e[5mC]*e[5mC]) [compound 17144],45
9,17137 (antisense eT*eT*e[5mC]*eA*eG*dG*dT*dA*dG*dC*dG*dT*dG*dT*dG*eT*e[5mC]*e[5mC]*eA*eG) [compound 17137],25
10,17149 (antisense eG*eG*eT*eT*eT*dC*dA*dG*dC*dT*dC*dC*dT*dC*dA*e[5mC]*eA*eT*eG*eG) [compound 17149],30
11,17150 (antisense eT*eA*eA*eA*eA*dA*dA*dA*dA*dA*dA*dA*dT*dC*dT*eG*eG*eA*eA*e[5mC]) [compound 17150],5
12,17151 (antisense eA*eA*eG*eA*eT*dA*dG*dC*dA*dG*dA*dA*dG*dT*dA*eG*eG*eA*eA*eA) [compound 17151],8
13,17156 (antisense e[5mC]*eA*e[5mC]*e[5mC]*eA*dG*dG*dA*dG*dG*dC*dA*dC*dT*dT*eG*eT*e[5mC]*eT*eA) [compound 17156],60
14,17146 (antisense eA*eT*e[5mC]*eA*eA*dT*dG*dA*dA*dT*dC*dT*dA*dA*dA*eG*eT*eG*e[5mC]*eG) [compound 17146],9
15,17147 (antisense eT*e[5mC]*eA*eG*e[5mC]*dA*dC*dC*dT*dT*dC*dA*dC*dC*dG*eT*eT*eA*eT*eT) [compound 17147],30
16,17138 (antisense eA*eT*eG*eT*eG*dA*dC*dT*dC*dT*dT*dT*dG*dC*dT*eG*eG*e[5mC]*eT*eG) [compound 17138],63
17,17142 (antisense eA*eT*e[5mC]*eT*eG*dA*dC*dA*dC*dC*dC*dT*dG*dA*dG*eT*eA*eG*eT*eT) [compound 17142],30
18,17154 (antisense e[5mC]*e[5mC]*eT*eT*eT*dG*dC*dC*dT*dC*dC*dC*dT*dT*dC*eT*eG*e[5mC]*eT*e[5mC]) [compound 17154],20

# Same assay, conditions: BCL1 cells electroporated with oligonucleotide, RNA collected 24 hours later; control 100%
row,Substance,% mRNA EXPRESSION [%]
1,17136 (antisense eG*eT*eT*e[5mC]*e[5mC]*dA*dC*dT*dG*dA*dG*dC*dC*dA*dT*e[5mC]*e[5mC]*eT*eG*e[5mC]) [compound 17136],75
2,17139 (antisense e[5mC]*e[5mC]*eA*eA*eG*dA*dG*dA*dT*dT*dA*dT*dG*dA*dA*eA*e[5mC]*eA*e[5mC]*e[5mC]) [compound 17139],41
3,17157 (antisense eA*eA*e[5mC]*e[5mC]*eT*dC*dC*dT*dG*dG*dG*dC*dT*dT*dA*eG*eT*e[5mC]*e[5mC]*eT) [compound 17157],53
4,17143 (antisense eG*e[5mC]*e[5mC]*eA*eG*dA*dC*dC*dC*dA*dG*dA*dA*dG*dG*eA*eG*eA*eA*eG) [compound 17143],42
5,17145 (antisense eA*eA*e[5mC]*eT*eT*dG*dG*dT*dC*dT*dT*dC*dA*dG*dG*eT*eA*e[5mC]*eG*eG) [compound 17145],89
6,17141 (antisense eG*e[5mC]*eT*e[5mC]*eT*dT*dC*dA*dT*dC*dA*dG*dT*dC*dA*eG*eT*eG*eT*e[5mC]) [compound 17141],62
7,17155 (antisense eT*eG*eA*eA*eA*dA*dA*dG*dG*dA*dG*dG*dG*dC*dA*eG*eG*e[5mC]*eG*eG) [compound 17155],78
8,17144 (antisense e[5mC]*eG*e[5mC]*eT*e[5mC]*dC*dT*dT*dG*dC*dT*dG*dA*dT*dG*eA*eA*eA*e[5mC]*e[5mC]) [compound 17144],55
9,17137 (antisense eT*eT*e[5mC]*eA*eG*dG*dT*dA*dG*dC*dG*dT*dG*dT*dG*eT*e[5mC]*e[5mC]*eA*eG) [compound 17137],75
10,17149 (antisense eG*eG*eT*eT*eT*dC*dA*dG*dC*dT*dC*dC*dT*dC*dA*e[5mC]*eA*eT*eG*eG) [compound 17149],70
11,17150 (antisense eT*eA*eA*eA*eA*dA*dA*dA*dA*dA*dA*dA*dT*dC*dT*eG*eG*eA*eA*e[5mC]) [compound 17150],95
12,17151 (antisense eA*eA*eG*eA*eT*dA*dG*dC*dA*dG*dA*dA*dG*dT*dA*eG*eG*eA*eA*eA) [compound 17151],92
13,17156 (antisense e[5mC]*eA*e[5mC]*e[5mC]*eA*dG*dG*dA*dG*dG*dC*dA*dC*dT*dT*eG*eT*e[5mC]*eT*eA) [compound 17156],40
14,17146 (antisense eA*eT*e[5mC]*eA*eA*dT*dG*dA*dA*dT*dC*dT*dA*dA*dA*eG*eT*eG*e[5mC]*eG) [compound 17146],91
15,17147 (antisense eT*e[5mC]*eA*eG*e[5mC]*dA*dC*dC*dT*dT*dC*dA*dC*dC*dG*eT*eT*eA*eT*eT) [compound 17147],70
16,17138 (antisense eA*eT*eG*eT*eG*dA*dC*dT*dC*dT*dT*dT*dG*dC*dT*eG*eG*e[5mC]*eT*eG) [compound 17138],37
17,17142 (antisense eA*eT*e[5mC]*eT*eG*dA*dC*dA*dC*dC*dC*dT*dG*dA*dG*eT*eA*eG*eT*eT) [compound 17142],70
18,17154 (antisense e[5mC]*e[5mC]*eT*eT*eT*dG*dC*dC*dT*dC*dC*dC*dT*dT*dC*eT*eG*e[5mC]*eT*e[5mC]) [compound 17154],80
